According to patent publication US10787643B2, “Methods, kits, and compositions for stem cell self-renewal” (Stowers Institute for Medical Research, priority 2007, dated 2020):

Assays:
[1] = test system: LSK Flk2− cells; assay: Transplantation of ex vivo expanded MNCs without competitor/radioprotective cells, with serial (secondary) transplantation; assay type: in vivo, mouse
Description: For this experiment, MNCs with a known quantity of putative HSCs were cultured with and without CHIR99021 for 14 days. After 14 days, the cellular product of these cultures was transplanted into lethally-irradiated recipients at a dosage corresponding to an original input into culture of MNCs containing 5 LSKF^− cells per mouse. Freshly isolated MNCs containing either 5 or 500 LSKF− cells were also transplanted into 2 additional lethally irradiated groups of mice. No rescue/competitor bone marrow cells were included.
At 16 weeks post-transplant, mice transplanted with MNCs containing 5 or 500 LSKF^− cells freshly isolated or cultured for 14 days described in FIGS. 6A-6D were sacrificed and bone marrow isolated. A secondary transplantation was performed on new groups of lethally irradiated mice by transplanting 1×10^6 bone marrow cells from the original transplant group per mouse. At 4 weeks post-transplant, peripheral blood was collected from each transplant recipient and donor-derived repopulation was determined.

[2] = test system: LSK Flk2− cells; assay: Ex vivo culture of sorted LSK Flk2− cells with PTEN and/or GSK-3β inhibitors; assay type: cell-based, mouse; details: for Expansion of LSK cells compared to control (photographs): 17 and 23 days culture, 1 μM CHIR99021, 200 nM BpV(pic); for Expansion of LSK Flk2− cells compared to media without either inhibitor: 28 days culture, inhibitor added individually
Description: LSK or LSK Flk2^− cells were sorted into 96-well U-bottom tissue culture plates at 100 cells/well with 200 μl media/well. Cells were incubated at 37° C., 5% O2, 5% CO2 (balance N2) for the indicated number of days. One-half total volume of media (see Table 1, below for the base media) was carefully pipetted from the top and replaced with fresh media every other day.
One hundred LSK Flk2^− cells were sorted from wild-type (C57Bl/6) mice and cultured in (1) media, (2) media+1 μM CHIR99021 (a GSK-3β inhibitor, a gift from Dr. Sheng Ding), (3) media+200 nM Dipotassium Bis-peroxo(picolinato)oxovanadate (BpV(pic), a PTEN inhibitor, available from Calbiochem, Cat. No. 203705), (4) media+1 μM CHIR99021+200 nM BpV(pic), (5) media+200 nM Shikonin (also a PTEN inhibitor, available from Calbiochem, Cat. No. 565850), and (6) media+200 nM Shikonin+1 μM CHIR99021. […] Cells were cultured as described above. […] Cells were examined at 17 days of culture (FIG. 3B, original magnification 100×) and 23 days (FIG. 3C, original magnification 40×).
LSK Flk2^− cells at 28 days culture in the indicated media conditions were examined (FIG. 3D, original magnification 200×).
FACS analysis of 28 day LSK Flk2^− cells cultured in media+BpV(pic)+CHIR99021 (FIG. 3E) was performed. Cells were pre-gated on live, lineage negative cells.
Fold expansion of LSK Flk2^− cells after 28 days culture in (1) media, (2) media+BpV(pic), (3) media+CHIR99021, and (4) media+CHIR99021+BpV(pic) were analyzed.
Cells cultured for 9 days in (1) media, (2) media+BpV(pic) (200 nM), (3) media+CHIR99021 (100 nM), and (4) media+CHIR99021 (100 nM)+BpV(pic) (200 nM) were re-sorted for LSK Flk2^− cells, and fold expansion of LSK Flk2^− cells after 9 days culture in the indicated conditions was determined (FIG. 3I).
FACS analysis was performed on 9 day LSK Flk2^− cells cultured in media+BpV(pic) (200 nM)+CHIR99021 (100 nM) (FIG. 3J). Cells were pre-gated on live, lineage negative cells.

[3] = test system: LSK Flk2− cells; assay: Transplantation of cultured sorted LSK Flk2− cells into lethally irradiated CD45.1+ recipient mice with competitor cells; assay type: in vivo, mouse; details: 1000 re-sorted LSK Flk2− cells from 28 day cultures; peripheral blood at 4 weeks post-transplant
Description: Cells were harvested from the wells prior to transplantation by pipetting up and down several times before transferring to a fresh tube. Residual was then collected by adding more media and repeating. Cells were washed in DMEM (Invitrogen, Cat. No. 31053) without phenol red and added to the appropriate number of whole bone marrow rescue cells from a congenic donor (for 200,000 rescue cells+1,000 re-sorted LSK Flk2^− cells (FIGS. 3F-3H) or the non-adherent product of 10 days culture of 100 LSK Flk2^− cultured cells (FIGS. 3I-3K) per mouse as indicated). […]
Repopulation was measured at 4 weeks post-transplant by collection of periperal blood, red blood cell lysis, and staining of CD45.1 (recipient) compared to CD45.2 (donor) engraftment using antibodies purchased from eBiosciences (FITC conjugated CD45.2 (Cat. No. 11-0454-85) and PE-Cy5 conjugated CD45.1 (Cat. No. 15-0453-82)). […] Multi-lineage reconstitution was determined by CD3, B220 (for lymphoid) and Gr1, Mac-1 (for myeloid), as described above.
Cells cultured for 28 days in (1) media, (2) media+BpV(pic), (3) media+CHIR99021 and (4) media+CHIR99021 (1 μM)+BpV(pic) (200 nM) were re-sorted for LSK Flk2^− cells. […] At 4 weeks post-transplant, peripheral blood was analyzed for donor (FIG. 3G) and multi-lineage (FIG. 3H) engraftment. […]

[4] = test system: LSK Flk2− cells; assay: Competitive repopulation after 14 days ex vivo expansion of sorted HSCs or unsorted MNCs with or without CHIR99021; assay type: in vivo, mouse; details: long-term engraftment, competitor cells present
Description: For the experimental results shown in FIG. 13A, sorted LSK Flk2^− cells and unsorted MNCs containing a known quantity of LSK Flk2^− cells (CD45.2^+) were cultured for 14 days in ST media with and without CHIR99021. The cultured product of 100 sorted or 5 unsorted LSK Flk2^− cells per mouse were transplanted into lethally irradiated recipients (CD45.1^+). 5 freshly isolated, unsorted LSK Flk2^− cells per mouse were transplanted into a separate group. 1×10^5 freshly isolated CD45.1^+ competitor/radioprotective cells were also added per mouse. Peripheral blood analysis of recipients at 16 weeks post-transplant depicts % chimerism.
For the experiments set forth in this Example, a particular HSC expansion media was used. […]
Bone marrow cells were harvested from C57Bl/6 (CD45.2) mice and made into a single cell suspension by gently drawing through a 22 g needle several times. […] Cells were counted and a fraction of mononuclear cells (MNCs) were stained for lineage markers using CD3, CD4, CD8, B220, IgM, Mac-1, Gr1, and Ter119 antibodies along with Kit, Sca-1, and Flk2 for mouse HSC analysis or CD34 and CD38 for human HSC analysis. […] Frequency of putative HSCs (lineage negative, Sca-1^+, Kit^+, […] for mouse or CD34^+, CD38^− cells for human) was determined by analyzing >3×10^5 cells per sample independently in triplicate. […]

[5] = test system: LSK Flk2− cells; assay: Bone marrow MNC culture in HSC expansion media with CHIR99021 and PI3K inhibitor, FACS for LSK Flk2− expansion (FIG. 21); assay type: cell-based, mouse; details: for Expansion of LSK Flk2− cells: bone marrow MNCs cultured 10 days in ST media, 250 nM CHIR99021 or indicated concentrations of NVP-BEZ235
Description: Bone marrow MNCs were cultured for 10 days in an HSC expansion media with and without 250 nM CHIR99021, along with the indicated concentrations of PI3K inhibitor ([…]. et al. Identification and characterization of NVP-BEZ235, a new orally available dual phosphatidylinositol 3-kinase/mammalian target of rapamycin inhibitor with potent in vivo antitumor activity. (Molecular cancer therapeutics 7, 1851-1863 (2008)), and then subjected to FACS analysis to determine expansion of LSK Flk2^- cells. The inventors have developed a defined culture system utilizing only two cytokines, stem cell factor (SCF) and thrombopoietin (Tpo) (ST media), which have been shown previously to support HSC expansion in vitro (Zhang, […]. Murine hematopoietic stem cells change their surface phenotype during ex vivo expansion. Blood 105, 4314-4320 (2005)). […] Also, the ability of CHIR99021 to enhance expansion was negated by PI3K inhibition (FIG. 21).

Row | Compound | Donor reconstitution ([1]; 16 weeks post-secondary transplant, MNCs containing 5 LSK Flk2− cells expanded 14 days in ST media with CHIR99021, no competitor cells) | Long-term repopulation equivalent to a greater dose of fresh, unexpanded cells ([1]; 16 weeks post-secondary transplantation, expanded MNCs with 5 putative HSCs vs fresh MNCs with 500) | Expansion of LSK cells compared to control (photographs) [2] | Expansion of LSK Flk2− cells compared to media without either inhibitor [2] | Mice showing >1% engraftment [3] | Average repopulation ([4]; 100 sorted putative HSCs cultured 14 days with CHIR99021 (250 nM)) | Average repopulation ([4]; unsorted MNC cultures, 14 days with CHIR99021 (250 nM)) | Expansion of LSK Flk2− cells [5] | Ability of CHIR99021 to enhance expansion of LSK Flk2− cells ([5]; PI3K inhibitor added together with 250 nM CHIR99021, 10 days)
1 | Cc1c[nH]c(-c2cnc(NCCNc3ccc(C#N)cn3)nc2-c2ccc(Cl)cc2Cl)n1 [CHIR99021] | 90.6±4.8% | 100 fold | greater expansion | significant expansion | 4/8 | 12.3% | 64.8% | increased the expansion | –
2 | Cn1c(=O)n(-c2ccc(C(C)(C)C#N)cc2)c2c3cc(-c4cnc5ccccc5c4)ccc3ncc21 [NVP-BEZ235] | – | – | – | – | – | – | – | decreased the ability of LSK Flk2^− cells to expand in a dose-dependent manner | negated
3 | Dipotassium Bis-peroxo(picolinato)oxovanadate [BpV(pic)] | – | – | greater expansion | significant expansion | 0/10 | – | – | – | –
